Reference: patent US8163740B2, “6-substituted benzoxazines” (Hoffmann-La Roche Inc., priority 2008, dated 2012)

Molecular target: recombinant human 5-HT5A receptor (Homo sapiens, UniProt P47898)
Assay: [3H]LSD radioligand binding assay
Conditions: [3H]LSD (approximately 1 nM); membranes from HEK-EBNA cells transiently expressing 5-HT5A; Ki by Cheng-Prussoff equation; read-out: Ki
Experimental: A [^3H]LSD radioligand binding assay was used to determine the affinity of the compounds for the recombinant human 5-HT5A receptor, in membranes from transiently (cDNA) expressed 5-HT5A receptors in Human Embryonic Kidney-EBNA (HEK-EBNA) cells. Assay buffer consisted of Tris (50 mM) buffer containing 1 mM EGTA, 10 mM MgCl2 (pH 7.4) and 10 μM pargyline. The binding assay was carried out in 96-well-plates in the presence of [^3H]LSD (approximately 1 nM), approximately 2 μg/well of membrane protein, and 0.5 mg of Ysi-poly-1-lysine SPA beads in a final volume of 200 μl of buffer. Non-specific binding was defined using methiothepin 2 μM. Compounds were tested at 10 concentrations. All assays were conducted in duplicate and repeated at least two times. Assay plates were incubated for 120 min at room temperature before centrifugation. Bound ligand was determined using a Packard Topcount scintillation counter. IC50 values were calculated using a non-linear curve fitting program and Ki values calculated using the Cheng-Prussoff equation.

Sequence of recombinant human 5-HT5A receptor (P47898 whole entry): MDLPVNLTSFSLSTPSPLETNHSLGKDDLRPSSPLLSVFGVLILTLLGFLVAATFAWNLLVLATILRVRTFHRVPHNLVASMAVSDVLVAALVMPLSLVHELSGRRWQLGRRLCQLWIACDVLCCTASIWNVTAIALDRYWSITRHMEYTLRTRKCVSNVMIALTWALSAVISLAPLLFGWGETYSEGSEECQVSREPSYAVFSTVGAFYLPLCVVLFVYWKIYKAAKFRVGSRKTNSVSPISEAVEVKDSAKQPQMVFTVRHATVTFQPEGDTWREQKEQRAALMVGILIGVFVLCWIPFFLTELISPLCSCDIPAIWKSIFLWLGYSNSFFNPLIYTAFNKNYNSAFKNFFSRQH

Row | Compound | Ki [nM]
1 | COc1cccc2c1C(NC1=Nc3ccc(NS(=O)(=O)c4ccccc4)cc3CO1)CC2 (racemic) [Example 104, rac-N-[2-(7-Methoxy-indan-1-ylamino)-4H-benzo[d][1,3]oxazin-6-yl]-benzenesulfonamide] | 8.68
2 | COc1cccc2c1C(NC1=Nc3ccc(Nc4nnn(C(C)(C)C)n4)cc3CO1)CC2 (racemic) [Example 112, rac-N^6-(2-tert-Butyl-2H-tetrazol-5-yl)-N^2-(7-methoxy-indan-1-yl)-4H-benzo[d][1,3]oxazine-2,6-diamine] | 4.56
3 | COc1cccc2c1C(NC1=Nc3ccc(NS(=O)(=O)C4CC4)cc3CO1)CO2 (racemic) [Example 113, rac-Cyclopropanesulfonic acid [2-(4-methoxy-2,3-dihydro-benzofuran-3-ylamino)-4H-benzo[d][1,3]oxazin-6-yl]-amide] | 12.6
4 | COc1cccc2c1C(NC1=Nc3ccc(NS(C)(=O)=O)cc3CO1)CO2 (racemic) [Example 114, rac-N-[2-(4-Methoxy-2,3-dihydro-benzofuran-3-ylamino)-4H-benzo[d][1,3]oxazin-6-yl]-methanesulfonamide] | 30.4
5 | COc1cccc2c1C(NC1=Nc3ccc(NS(=O)(=O)c4ccccc4)cc3CO1)CO2 (racemic) [Example 115, rac-N-[2-(4-Methoxy-2,3-dihydro-benzofuran-3-ylamino)-4H-benzo[d][1,3]oxazin-6-yl]-benzenesulfonamide] | 20.9
6 | O=C(CN1CCOCC1)Nc1ccc2c(c1)COC(NC1CCOc3ccccc31)=N2 (racemic) [Example 121, N-[2-(Chroman-4-ylamino)-4H-benzo[d][1,3]oxazin-6-yl]-2-morpholin-4-yl-acetamide] | 135
7 | COc1cccc2c1C(NC1=Nc3ccc(C#N)cc3CO1)CO2 (racemic) [Example 141, rac-2-(4-Methoxy-2,3-dihydro-benzofuran-3-ylamino)-4H-benzo[d][1,3]oxazine-6-carbonitrile] | 160
8 | COc1cccc2c1C(NC1=Nc3ccc(C#N)cc3CO1)CC2 (racemic) [Example 142, rac-2-(7-Methoxy-indan-1-ylamino)-4H-benzo[d][1,3]oxazine-6-carbonitrile] | 27
9 | COc1ccccc1CNC1=Nc2ccc([N+](=O)[O-])cc2CO1 [Example 1, (2-Methoxy-benzyl)-(6-nitro-4H-benzo[d][1,3]oxazin-2-yl)-amine] | 390
10 | Nc1ccc2c(c1)COC(N[C@@H]1CCc3ccccc31)=N2 [Example 2, (R)-N^2-Indan-1-yl-4H-benzo[d][1,3]oxazine-2,6-diamine] | 1.04
11 | COc1ccccc1CNC1=Nc2ccc(N)cc2CO1 [Example 4, N^2-(2-Methoxy-benzyl)-4H-benzo[d][1,3]oxazine-2,6-diamine] | 6.05
12 | COc1ccccc1CNC1=Nc2ccc(NC(=O)C3CC3)cc2CO1 [Example 7, Cyclopropanecarboxylic acid [2-(2-methoxy-benzylamino)-4H-benzo[d][1,3]oxazin-6-yl]-amide] | 2.98
13 | CN(C)S(=O)(=O)Nc1ccc2c(c1)COC(N[C@@H]1CCc3ccccc31)=N2 [Example 27, N,N-(Dimethyl)-N′-{2-((R)-indan-1-ylamino)-4H-benzo[d][1,3]oxazin-6-yl}-sulfamide] | 2.36
14 | COc1ccccc1CNC1=Nc2ccc(NC(=O)CN3CCN(CCO)CC3)cc2CO1 [Example 28, 2-[4-(2-Hydroxy-ethyl)-piperazin-1-yl]-N-[2-(2-methoxy-benzylamino)-4H-benzo[d][1,3]oxazin-6-yl]-acetamide] | 10.2
15 | COc1ccccc1CNC1=Nc2ccc(NC(=O)CN3CCN(C(C)C)CC3)cc2CO1 [Example 29, 2-(4-Isopropyl-piperazin-1-yl)-N-[2-(2-methoxy-benzylamino)-4H-benzo[d][1,3]oxazin-6-yl]-acetamide] | 10.9
16 | O=S(=O)(Nc1ccc2c(c1)COC(N[C@@H]1CCc3ccccc31)=N2)N1CCCCC1 [Example 30, Piperidine-1-sulfonic acid [2-((R)-indan-1-ylamino)-4H-benzo[d][1,3]oxazin-6-yl]-amide] | 4.2
17 | O=S(=O)(Nc1ccc2c(c1)COC(N[C@@H]1CCc3ccccc31)=N2)N1CCOCC1 [Example 31, Morpholine-4-sulfonic acid [2-((R)-indan-1-ylamino)-4H-benzo[d][1,3]oxazin-6-yl]-amide] | 4.38
18 | Nc1ccc2c(c1)COC(N[C@@H]1CCCc3ccccc31)=N2 [Example 33, (R)-N^2-(1,2,3,4-Tetrahydro-naphthalen-1-yl)-4H-benzo[d][1,3]oxazine-2,6-diamine] | 7.85
19 | FC(F)(F)c1cccc(Nc2ccc3c(c2)COC(N[C@@H]2CCc4ccccc42)=N3)n1 [Example 35, N^2-(R)-Indan-1-yl-N^6-(6-trifluoromethyl-pyridin-2-yl)-4H-benzo[d][1,3]oxazine-2,6-diamine] | 6.16
20 | COCCNCC(=O)Nc1ccc2c(c1)COC(N[C@@H]1CCCc3ccccc31)=N2 [Example 40, 2-(2-Methoxy-ethylamino)-N-{2-[(R)-(1,2,3,4-tetrahydro-naphthalen-1-yl)amino]-4H-benzo[d][1,3]oxazin-6-yl}-acetamide] | 33
21 | CC(C)(O)CNCC(=O)Nc1ccc2c(c1)COC(N[C@@H]1CCCc3ccccc31)=N2 [Example 41, 2-(2-Hydroxy-2-methyl-propylamino)-N-{2-[(R)-(1,2,3,4-tetrahydro-naphthalen-1-yl)amino]-4H-benzo[d][1,3]oxazin-6-yl}-acetamide] | 33
22 | FC(F)(F)c1ccnc(Nc2ccc3c(c2)COC(N[C@@H]2CCc4ccccc42)=N3)n1 [Example 46, N^2-(R)-Indan-1-yl-N^6-(4-trifluoromethyl-pyrimidin-2-yl)-4H-benzo[d][1,3]oxazine-2,6-diamine] | 7.1
23 | Cc1cc(C)nc(Nc2ccc3c(c2)COC(N[C@@H]2CCc4ccccc42)=N3)n1 [Example 47, N^6-(4,6-Dimethyl-pyrimidin-2-yl)-N^2-(R)-indan-1-yl-4H-benzo[d][1,3]oxazine-2,6-diamine] | 3.56
24 | CC(C)(O)CNCC(=O)Nc1ccc2c(c1)COC(N[C@@H]1CCc3ccccc31)=N2 [Example 68, 2-(2-Hydroxy-2-methyl-propylamino)-N-[2-((R)-indan-1-ylamino)-4H-benzo[d][1,3]oxazin-6-yl]-acetamide] | 9.23

Second part, the compound after the results:

Row | Ki [nM] | Compound
25 | 14.3 | CN1CCN(CC(=O)Nc2ccc3c(c2)COC(NC2CCOc4ccccc42)=N3)CC1 (racemic) [Example 120, rac-N-[2-(Chroman-4-ylamino)-4H-benzo[d][1,3]oxazin-6-yl]-2-(4-methyl-piperazin-1-yl)-acetamide]
26 | 1.84 | CN1CCN(CC(=O)Nc2ccc3c(c2)COC(N[C@@H]2CCc4ccccc42)=N3)CC1 [Example 3, N-[2-((R)-Indan-1-ylamino)-4H-benzo[d][1,3]oxazin-6-yl]-2-(4-methyl-piperazin-1-yl)-acetamide]
27 | 0.83 | O=C(Nc1ccc2c(c1)COC(N[C@@H]1CCc3ccccc31)=N2)C1CC1 [Example 18, Cyclopropanecarboxylic acid [2-((R)-indan-1-ylamino)-4H-benzo[d][1,3]oxazin-6-yl]-amide]
28 | 4.1 | COCC(=O)Nc1ccc2c(c1)COC(N[C@@H]1CCc3ccccc31)=N2 [Example 19, N-[2-((R)-Indan-1-ylamino)-4H-benzo[d][1,3]oxazin-6-yl]-2-methoxy-acetamide]
29 | 6.12 | COc1ccccc1CNC1=Nc2ccc(NC(=O)CN3CCN(C)CC3)cc2CO1 [Example 26, N-[2-(2-Methoxy-benzylamino)-4H-benzo[d][1,3]oxazin-6-yl]-2-(4-methyl-piperazin-1-yl)-acetamide]
30 | 8.74 | O=C(CN1CCOCC1)Nc1ccc2c(c1)COC(N[C@@H]1CCc3ccccc31)=N2 [Example 37, N-[2-((R)-Indan-1-ylamino)-4H-benzo[d][1,3]oxazin-6-yl]-2-morpholin-4-yl-acetamide]
31 | 3.16 | CN1CCN(CC(=O)Nc2ccc3c(c2)COC(N[C@@H]2CCCc4ccccc42)=N3)CC1 [Example 38, 2-(4-Methyl-piperazin-1-yl)-N-{2-[(R)-(1,2,3,4-tetrahydro-naphthalen-1-yl)amino]-4H-benzo[d][1,3]oxazin-6-yl}-acetamide]
32 | 22.8 | O=C(CN1CCOCC1)Nc1ccc2c(c1)COC(N[C@@H]1CCCc3ccccc31)=N2 [Example 39, 2-Morpholin-4-yl-N-{2-[(R)-(1,2,3,4-tetrahydro-naphthalen-1-yl)amino]-4H-benzo[d][1,3]oxazin-6-yl}-acetamide]
33 | 3.63 | CC(=O)Nc1ccc2c(c1)COC(N[C@@H]1CCc3ccccc31)=N2 [Example 48, N-[2-((R)-Indan-1-ylamino)-4H-benzo[d][1,3]oxazin-6-yl]-acetamide]
34 | 7.62 | O=C(CN1CCSCC1)Nc1ccc2c(c1)COC(N[C@@H]1CCc3ccccc31)=N2 [Example 65, N-[2-((R)-Indan-1-ylamino)-4H-benzo[d][1,3]oxazin-6-yl]-2-thiomorpholin-4-yl-acetamide]
35 | 16 | O=C(CN1CCS(=O)(=O)CC1)Nc1ccc2c(c1)COC(N[C@@H]1CCc3ccccc31)=N2 [Example 66, 2-(1,1-Dioxo-1λ^6-thiomorpholin-4-yl)-N-[2-((R)-indan-1-ylamino)-4H-benzo[d][1,3]oxazin-6-yl]-acetamide]
36 | 7.42 | O=C(Cn1ccnc1)Nc1ccc2c(c1)COC(N[C@@H]1CCc3ccccc31)=N2 [Example 67, 2-Imidazol-1-yl-N-[2-((R)-indan-1-ylamino)-4H-benzo[d][1,3]oxazin-6-yl]-acetamide]
